According to ChEMBL document CHEMBL3608270, “Advances in tetrahydropyrido[1,2-a]isoindolone (valmerins) series: Potent glycogen synthase kinase 3 and cyclin dependent kinase 5 inhibitors” (Eur J Med Chem, 2015):

Experiments:
[1] = target: Cyclin-dependent kinase 5/CDK5 activator 1 (Homo sapiens, UniProt Q00535); assay: Inhibition of human recombinant CDK5/p25 using histone H1 substrate and ATP; type: protein-complex assay
[2] = target: Glycogen synthase kinase-3 (Sus scrofa, UniProt B2LUN4+I6LNT8); assay: Inhibition of porcine brain GSK3alpha/beta using GS-1 substrate and ATP
[3] = Selectivity index, ratio of IC50 for human recombinant CDK5/p25 to porcine brain GSK3alpha/beta
[4] = target: Dual specificity tyrosine-phosphorylation-regulated kinase 1A (Homo sapiens, UniProt Q13627); assay: Inhibition of human recombinant GST-tagged DYRK1A expressed in Escherichia coli
cells = conditions: Homo sapiens, Huh-7, 48 h
Caco-2 [5] = assay: cells; conditions: Homo sapiens, Caco-2, 48 h
MDA-MB-231 [6] = assay: cells; conditions: Homo sapiens, MDA-MB-231, 48 h
HCT-116 [7] = assay: cells; conditions: Homo sapiens, HCT-116, 48 h
PC-3 [8] = assay: cells; conditions: Homo sapiens, PC-3, 48 h
NCI-H727 [9] = assay: cells; conditions: Homo sapiens, NCI-H727, 48 h
Caco-2 [10] = system: Caco-2
MDA-MB-231 [11] = system: MDA-MB-231
HCT-116 [12] = system: HCT-116
PC-3 [13] = system: PC-3
NCI-H727 [14] = system: NCI-H727

Cyclin-dependent kinase 5/CDK5 activator 1, sequence (Q00535 whole entry): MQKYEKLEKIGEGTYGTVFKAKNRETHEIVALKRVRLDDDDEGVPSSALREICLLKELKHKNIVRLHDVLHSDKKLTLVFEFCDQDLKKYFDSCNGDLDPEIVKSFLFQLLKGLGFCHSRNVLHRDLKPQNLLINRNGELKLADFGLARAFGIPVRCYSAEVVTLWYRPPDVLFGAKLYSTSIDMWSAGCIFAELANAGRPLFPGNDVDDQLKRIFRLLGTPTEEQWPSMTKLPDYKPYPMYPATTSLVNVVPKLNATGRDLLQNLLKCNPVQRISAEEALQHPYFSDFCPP
Cyclin-dependent kinase 5/CDK5 activator 1, sequence (Q15078 whole entry, further chain): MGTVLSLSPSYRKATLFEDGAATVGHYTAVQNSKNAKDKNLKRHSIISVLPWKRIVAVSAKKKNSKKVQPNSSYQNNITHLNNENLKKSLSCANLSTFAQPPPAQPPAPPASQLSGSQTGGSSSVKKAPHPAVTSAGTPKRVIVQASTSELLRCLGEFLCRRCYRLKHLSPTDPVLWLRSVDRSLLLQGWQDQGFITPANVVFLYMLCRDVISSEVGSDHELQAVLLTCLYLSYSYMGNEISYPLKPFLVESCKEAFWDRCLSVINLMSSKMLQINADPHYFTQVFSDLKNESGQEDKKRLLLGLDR

Structure (SMILES) | IC50 [1] [nM] | IC50 [2] [nM] | Ratio IC50 [3] | IC50 [4] [nM] | other results
COc1cc(NC(=O)Nc2cccc3c2[C@@H]2C[C@H](OC)CCN2C3=O)nc2ccccc12 (relative stereo) | 8500 | 180 | 47.5 | > 10000 | 
O=C(Nc1ccccn1)Nc1cccc2c1C1CC3(CCN1C2=O)SCCS3 (configuration not stated) |  | 33 | 7.2 |  | 
O=C(Nc1ccccn1)Nc1cccc2c1[C@@H]1C[C@H](O)CCN1C2=O | 2100 |  |  |  | 
O=C1CCN2C(=O)c3cccc(NC(=O)Nc4ccccn4)c3C2C1 (configuration not stated) | 1600 | 230 |  |  | 
Cc1cccc(NC(=O)Nc2cccc3c2C2CC4(CCN2C3=O)OCCO4)n1 (configuration not stated) |  | 920 | > 10 |  | 
O=C(Nc1ccc(Br)cn1)Nc1cccc2c1C1CC3(CCN1C2=O)SCCS3 (configuration not stated) |  | 68 | 107 |  | 
Cc1cnc(NC(=O)Nc2cccc3c2C2CC4(CCN2C3=O)SCCS4)cn1 (configuration not stated) |  | 55 |  |  | IC50 (cells): 300 nM; IC50 (Caco-2 [5]): 500 nM; IC50 (MDA-MB-231 [6]): 400 nM; IC50 (HCT-116 [7]): 200 nM; IC50 (PC-3 [8]): 400 nM; IC50 (NCI-H727 [9]): 800 nM
CO[C@@H]1CCN2C(=O)c3cccc(NC(=O)Nc4ccccn4)c3[C@@H]2C1 (relative stereo) | 550 | 81 | 6.8 | > 10000 | 
Cc1cccnc1NC(=O)Nc1cccc2c1C1CC3(CCN1C2=O)OCCO3 (configuration not stated) |  | 610 | 5 |  | 
COc1cc(NC(=O)Nc2cccc3c2C2CC4(CCN2C3=O)OCCO4)nc2ccccc12 (configuration not stated) |  | 1000 | > 10 |  | 
O=C(Nc1cnccn1)Nc1cccc2c1C1CC3(CCN1C2=O)SCCS3 (configuration not stated) |  | 44 |  |  | IC50 (cells): 100 nM; IC50 (Caco-2 [5]): 500 nM; IC50 (MDA-MB-231 [6]): 150 nM; IC50 (HCT-116 [7]): 100 nM; IC50 (PC-3 [8]): 600 nM; IC50 (NCI-H727 [9]): 400 nM
COc1cc(NC(=O)Nc2cccc3c2C2CC4(CCN2C3=O)SCCS4)nc2ccccc12 (configuration not stated) |  | 4000 | > 2.5 |  | 
CO[C@@H]1CCN2C(=O)c3cccc(NC(=O)Nc4cnc(C)cn4)c3[C@@H]2C1 (relative stereo) | 320 | 140 | 10 | > 10000 | 
COc1cc(NC(=O)Nc2cccc3c2[C@@H]2C[C@H](O)CCN2C3=O)nc2ccccc12 (relative stereo) | 4900 | 35 |  | > 10000 | IC50 (Caco-2 [10]): Not Active; IC50 (MDA-MB-231 [11]): Not Active; IC50 (HCT-116 [12]): Not Active; IC50 (PC-3 [13]): Not Active; IC50 (NCI-H727 [14]): Not Active
O=C1CCN2C(=O)c3cccc(NC(=O)Nc4cnccn4)c3C2C1 (configuration not stated) | 3600 | 1200 |  |  | 
CO[C@@H]1CCN2C(=O)c3cccc(NC(=O)Nc4ncccc4C)c3[C@@H]2C1 (relative stereo) | 1100 |  |  | > 10000 | 
CO[C@@H]1CCN2C(=O)c3cccc(NC(=O)Nc4cccc(C)n4)c3[C@@H]2C1 (relative stereo) | 4300 | 320 | 13.4 | > 10000 | 
Cc1cccc(NC(=O)Nc2cccc3c2C2CC4(CCN2C3=O)SCCS4)n1 (configuration not stated) |  | 2000 | > 5 |  | 
Cc1cccnc1NC(=O)Nc1cccc2c1[C@@H]1C[C@H](O)CCN1C2=O (relative stereo) | 630 |  |  |  | 
Cc1cccc(NC(=O)Nc2cccc3c2[C@@H]2C[C@H](O)CCN2C3=O)n1 | 1000 |  |  |  | IC50 (Caco-2 [10]): Not Active; IC50 (MDA-MB-231 [11]): Not Active; IC50 (HCT-116 [12]): Not Active; IC50 (PC-3 [13]): Not Active; IC50 (NCI-H727 [14]): Not Active
CO[C@@H]1CCN2C(=O)c3cccc(NC(=O)Nc4ccn(C)n4)c3[C@@H]2C1 (relative stereo) | 2300 |  |  | > 10000 | 
O=C(Nc1cnccn1)Nc1cccc2c1[C@@H]1C[C@H](O)CCN1C2=O (relative stereo) | 84 | 32 |  | > 10000 | IC50 (Caco-2 [10]): Not Active; IC50 (MDA-MB-231 [11]): Not Active; IC50 (HCT-116 [12]): Not Active; IC50 (PC-3 [13]): Not Active; IC50 (NCI-H727 [14]): Not Active
CO[C@@H]1CCN2C(=O)c3cccc(NC(=O)Nc4cc(C)ccn4)c3[C@@H]2C1 (relative stereo) | 320 | 32 | 10 | > 10000 | IC50 (cells): 100 nM; IC50 (Caco-2 [5]): 500 nM; IC50 (MDA-MB-231 [6]): 300 nM; IC50 (HCT-116 [7]): 30 nM; IC50 (PC-3 [8]): 400 nM; IC50 (NCI-H727 [9]): 400 nM
CO[C@@H]1CCN2C(=O)c3cccc(NC(=O)Nc4cnccn4)c3[C@@H]2C1 (relative stereo) | 480 | 200 | 2.4 | > 10000 | 
Cn1ccc(NC(=O)Nc2cccc3c2C2CC4(CCN2C3=O)SCCS4)n1 (configuration not stated) |  | 1900 | > 5.2 |  | 
